Data reported in US9409952B2, “Peptide-compound cyclization method” (Chugai Seiyaku Kabushiki Kaisha, priority 2011, dated 2016).
Where two headings read alike, the source gives them in different places. Starred links: 1 amine or outer side, 2 acyl side, 3 side chain; linkers in the order of their positions; H or OH if unused. Positions of bridges follow the written chain, without caps; N, C: chain ends. Non-standard residues stand in square brackets, D forms with d. Residues, ends and D or L forms follow the SMILES beside them. *: point of attachment. NMeF = CN[C@@H](Cc1ccccc1)C(=O)O; NMeGABA = CN(CCCC(=O)[*:2])[*:1]; NMeβAla = CN(CCC(=O)[*:2])[*:1]; NMeL = CN[C@@H](CC(C)C)C(=O)O; NMeA = CN[C@@H](C)C(=O)O; Piperidide = C1CCN(*)CC1; dNMeA = CN[C@H](C)C(=O)O; Sar = CNCC(=O)O; tBu = CC(C)(C)*

What was measured:
[1] = PAMPA (parallel artificial membrane permeability assay); type: in vitro ADME; conditions: PAMPA
Procedure, shortened: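 Artificial membrane was 10% (w/v) egg lecithin plus 0.5% (w/v) cholesterol in dodecane on a PVDF filter. A 10 mM DMSO stock was added at 0.5% (v/v) to donor buffer (50 mM MOPSO, pH 6.5, 5.0% glycocholic acid). After 18 h at 37 °C, LC/MS or LC/UV gave donor and acceptor levels for Pe.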

[2] = Metabolic stability in human hepatic microsome; type: in vitro ADME; conditions: microsomes
[3] = membrane permeation rate (Pe), 50 mM MOPSO buffer pH 6.5 with 5.0% glycocholic acid, 37° C., 18 hours, read-out: iPAMPA Pe
[4] = pH 7.4, human hepatic microsome, NADPH(+), read-out: CL NADPH(+)

| Structure (SMILES) | Papp at 18 hours, 50 µM [1, 3] | microsomal CLint at 1 uM [2, 4] | Papp at 18 hours, 50 µM ([1]; pH 6.5) | microsomal CLint at 1 uM ([2]; human, pH 7.4, CL NADPH(+)) |
| --- | --- | --- | --- | --- |
| CC(C)C[C@H]1C(=O)NCC(=O)N[C@H](C(=O)N2CCCCC2)CC(=O)N(C)CCC(=O)N[C@@H]([C@@H](C)O)C(=O)N(C)[C@@H](C)C(=O)N[C@@H](COC(C)(C)C)C(=O)N(C)[C@@H](Cc2ccccc2)C(=O)N1C [DP-522] ([NMeβAla]T[NMeA]S(tBu)[NMeF][NMeL]GD-Piperidide; lactam N-8) | 5.3 ×10⁻⁶ cm/s | 87 µL/min/mg |  |  |
| CC(C)C[C@H]1C(=O)N[C@@H](COC(C)(C)C)C(=O)N[C@H](C(=O)N2CCCCC2)CC(=O)N(C)[C@@H](C)C(=O)N(C)[C@@H](Cc2ccccc2)C(=O)N(C)[C@@H](CC(C)C)C(=O)N[C@@H]([C@@H](C)O)C(=O)N(C)CC(=O)N1C [DP-523] ([NMeA][NMeF][NMeL]T[Sar][NMeL]S(tBu)D-Piperidide; lactam N-8) | 20 ×10⁻⁶ cm/s | 99 µL/min/mg |  |  |
| CC(C)C[C@H]1C(=O)N[C@@H]([C@@H](C)O)C(=O)N(C)[C@@H](C)C(=O)N(C)[C@@H](CC(C)C)C(=O)N(C)[C@@H](Cc2ccccc2)C(=O)N[C@H](C(=O)N2CCCCC2)CC(=O)N(C)CCCC(=O)N(C)[C@@H](C)C(=O)N1C [DP-524] ([NMeGABA][NMeA][NMeL]T[NMeA][NMeL][NMeF]D-Piperidide; lactam N-8) | 16 ×10⁻⁶ cm/s | 162 µL/min/mg |  |  |
| CC(C)C[C@H]1C(=O)N(C)[C@@H](CC(C)C)C(=O)N[C@H](C(=O)N2CCCCC2)CC(=O)N(C)CCCC(=O)N(C)[C@@H](Cc2ccccc2)C(=O)N[C@@H]([C@@H](C)O)C(=O)N(C)CC(=O)N[C@@H](COC(C)(C)C)C(=O)N1C [DP-525] ([NMeGABA][NMeF]T[Sar]S(tBu)[NMeL][NMeL]D-Piperidide; lactam N-8) | 22 ×10⁻⁶ cm/s | 86 µL/min/mg |  |  |
| CC(C)C[C@H]1C(=O)N(C)[C@@H](Cc2ccccc2)C(=O)N[C@H](C(=O)N2CCCCC2)CC(=O)N[C@H](C(C)C)C(=O)N[C@@H](C)C(=O)N[C@@H]([C@@H](C)O)C(=O)N(C)[C@@H](C)C(=O)N[C@@H](Cc2ccccc2)C(=O)N1C [DP-526] ([dV]AT[NMeA]F[NMeL][NMeF]D-Piperidide; lactam N-8) | 14 ×10⁻⁶ cm/s | 49 µL/min/mg |  |  |
| CC(C)C[C@H]1C(=O)N[C@H](C(=O)N2CCCCC2)CC(=O)N(C)[C@H](C)C(=O)N(C)[C@@H](Cc2ccccc2)C(=O)N(C)[C@@H](CC(C)C)C(=O)N[C@@H]([C@@H](C)O)C(=O)N(C)CC(=O)N[C@@H](COC(C)(C)C)C(=O)N1C [DP-527] ([dNMeA][NMeF][NMeL]T[Sar]S(tBu)[NMeL]D-Piperidide; lactam N-8) | 11 ×10⁻⁶ cm/s | 30 µL/min/mg |  |  |
| CC(C)C[C@H]1C(=O)N[C@@H](COC(C)(C)C)C(=O)N[C@H](C(=O)N2CCCCC2)CC(=O)N[C@H](C)C(=O)N(C)[C@@H](Cc2ccccc2)C(=O)N(C)[C@@H](CC(C)C)C(=O)N[C@@H]([C@@H](C)O)C(=O)N(C)CC(=O)N1C [DP-528] ([dA][NMeF][NMeL]T[Sar][NMeL]S(tBu)D-Piperidide; lactam N-8) | 13 ×10⁻⁶ cm/s | 55 µL/min/mg |  |  |
| CC(C)C[C@H]1C(=O)N[C@@H](COC(C)(C)C)C(=O)N[C@H](C(=O)N2CCCCC2)CC(=O)N[C@H](C)C(=O)N(C)[C@@H](Cc2ccccc2)C(=O)N(C)[C@@H](CC(C)C)C(=O)N[C@@H]([C@@H](C)O)C(=O)N(C)[C@@H](C)C(=O)N1C [DP-529] ([dA][NMeF][NMeL]T[NMeA][NMeL]S(tBu)D-Piperidide; lactam N-8) | 23 ×10⁻⁶ cm/s | 100 µL/min/mg |  |  |
| CC(C)C[C@@H]1NC(=O)[C@H](Cc2ccccc2)N(C)C(=O)[C@H]([C@@H](C)O)NC(=O)[C@H](Cc2ccccc2)N(C)C(=O)[C@H](C)N(C)C(=O)[C@H](C)NC(=O)C[C@@H](C(=O)N2CCCCC2)NC(=O)[C@@H]2CCCN2C1=O [DP-530] (A[NMeA][NMeF]T[NMeF]LPD-Piperidide; lactam N-8) |  |  | 11 ×10⁻⁶ cm/s | 37 µL/min/mg |
| CC(C)C[C@H]1C(=O)N[C@H](C(=O)N2CCCCC2)CC(=O)N(C)CC(=O)N[C@@H]([C@@H](C)O)C(=O)N(C)[C@@H](C)C(=O)N[C@@H](COC(C)(C)C)C(=O)N(C)[C@@H](Cc2ccccc2)C(=O)N1C [DP-531] ([Sar]T[NMeA]S(tBu)[NMeF][NMeL]D-Piperidide; lactam N-7) | 5.8 ×10⁻⁶ cm/s | 42 µL/min/mg |  |  |
| CC(C)C[C@H]1C(=O)N[C@H](C(=O)N2CCCCC2)CC(=O)N(C)CCC(=O)N[C@@H]([C@@H](C)O)C(=O)N(C)[C@@H](C)C(=O)N[C@@H](COC(C)(C)C)C(=O)N(C)[C@@H](Cc2ccccc2)C(=O)N1C [DP-532] ([NMeβAla]T[NMeA]S(tBu)[NMeF][NMeL]D-Piperidide; lactam N-7) | 20 ×10⁻⁶ cm/s | 105 µL/min/mg |  |  |
